# According to patent US5786165A, “Herbicide test method” (Agrevo UK Limited, priority 1994, dated 1998):
# Assays:
# [1] = test system: crude, desalted homogenates from pea seedlings; test: Adenylate metabolism pathway in a crude plant homogenate; type: in vitro ADME, Peas (Pisum sativum L var Onward); details: without ATP, 10 minutes at 25° C.
# Experimental: Peas (Pisum sativum L var Onward) were grown in soil for 10 days at 25° C. with a 16 hour/8 hour light/dark cycle. The seedlings were harvested close to soil level and a crude homogenate of was prepared by homogenization in 2 volumes of ice cold buffer containing tris-HCl (0.1M, pH 7.4 with 5M NaOH), 0.1 mM dithiothreitol and 0.4M sucrose using a Waring blender (1 minute, top speed). The homogenate was passed through 6 layers of muslin and 2.5 ml desalted on a sephadex (Registered Trade Mark) PD10 column (1.5 cm×8 cm) which had been pre-equilibrated with the homogenization buffer. Protein was eluted using the same buffer. The assay contained, in a total volume of 250 μl, 50 mM Tris-HCl (pH 6.5), 50 mM KCl, 0.05% (w/v) BSA and […] protein. ATP (5 mM) was also included where indicated. The assay was started by the addition of [^14 C] adenosine (500 μM, 0.2 μCi). After incubation at 25° C. for 10 minutes, the reaction was stopped by the addition of 0.25 ml ice cold HClO4 (0.4M). Precipitated protein was removed by centrifugation (13,000 g, 2 minutes) and 0.4 ml of the resulting supernatant applied to phenylsilane bonded silica gel columns (500 mg) which had been previously washed with 2 volumes of methanol and then 2 ml 0.4M HClO4. Samples were eluted with 4 ml 0.4M HClO4. The pH of the eluate was adjusted on ice to between 5.5 and 7.0 with 5M KOH. The neutralised extract was centrifuged (13,000 g, 2 minutes) and evaporated to dryness in a Gyrovap (Registered Trade Mark). The sample was then re-dissolved in 0.5 ml 10 mM HCl and centrifuged (13,000 g, 2 minutes) prior to HPLC analysis. The products were analysed using reverse phase chromatography with a spherisorb (Registered Trade Mark) column (25 cm×0.46 cm), solvent 1: 95:5 10 mM KH2 PO4 : methanol; solvent 2: 88:12 10 mM KH2 PO4 : methanol, pH 5.3, step change at 6 minutes, Flow rate: 1 ml/minute.
# plant AMP deaminase = test: Plant AMP deaminase inhibition assay; type: biochemical, Pea seedlings; details: for IC50: 10 minute preincubation, substrate concentration 640 μM, read-out: 50% inhibition of AMP deaminase activity
# Experimental: (§1) Pea seedlings were excised near soil level, the stems quickly washed with distilled water and then stood upright in a […] containing 2 ml of compound solution or water (control). A section (approx 2 mm) was cut from the base of the stem while it was immersed to prevent air locks from forming in the xylem. The seedlings were incubated in the light at room temperature (approx 20° C.) in a moving air stream. At intervals, individual seedlings were extracted and the levels of AMP deaminase determined by extraction in 2 volumes ice cold citrate buffer (0.1M, pH 7), 0.5 mM dithiothreitol using a pestle and mortar. The homogenate was passed through 6 layers of muslin and loaded onto a sephadex gel filtration column (1.5 cm×8 cm) which had previously been equilibrated with 30 mM citrate (pH 7.1), 50 mM KCl and 0.5% (w/v) BSA (Assay buffer). The protein was eluted using the assay buffer and used directly for the enzyme assay. The assay is based on the release of ammonia (McCullough (1967), Clinica Chimica Acta, 17, 297) and contained in a total volume of 0.5 ml 60 mM citrate buffer (pH 7.1 with 5M NaOH) 100 mM KCl, 0.1% (w/v) BSA and 5 mM AMP. The reaction was started by the addition of 50 μl extract. At 15 minute intervals from 0 to 60 minutes, the reaction was stopped by the addition of 420 μl reagent 1 (0.1M phenol, 0.17 mM sodium nitroprusside) immediately followed by 275 μl reagent 2 (0.125M NaOH, 0.38M Na2 HPO4 and 5 ml HOCl in a total volume of 500 ml). Following incubation for 60 minutes at 55° C., the absorbance of the solutions at 625 nm was determined.
# Pea seedlings were grown as described in Test Example 2. The seedlings were harvested close to soil level and homogenized in 2 volumes of ice cold phosphate buffer (pH 7.5) containing 0.1 mM dithiothreitol and 0.4M sucrose using a Waring blender (1 minute, top speed). All of the following operations were carried out at 4° C. The homogenate was filtered through 6 layers of muslin and centrifuged at 100,000 g for 20 minutes to remove cell debris. To the resulting supernatant was added 40% (w/v) ammonium sulphate while stirring constantly. The precipitate was collected by centrifugation (12,000 g, 15 minutes) and dissolved in 30 ml phosphate buffer (pH 7.5), 0.1 mM dithiothreitol then dialyzed overnight against 2 l of the same buffer. Insolubles formed during the overnight dialysis were removed by centrifugation (7,000 g, 10 minutes). The supernatant was applied to a phospho-cellulose column (1.5×8 cm) which had been pre-equilibrated with 0.1M phosphate buffer (pH 7.5). After loading, the column was washed with 14 ml phosphate buffer (0.1M, pH 7.5) and the enzyme eluted with 0.6M phosphate buffer (pH 7.5). Activity was determined using the ammonia release assay described in Test Example 3 above.
# AMP deaminase = test: Extractable levels of AMP deaminase in treated pea seedlings; type: in vivo
# Experimental: as §1, with “At 15 minute intervals from 0 to 60 minutes, the reaction was stopped by the addition of 420 μl reagent 1 (0.1M phenol, 0.17 mM sodium nitroprusside) immediately followed by 275 μl reagent 2 (0.125M NaOH, 0.38M Na2 HPO4 and 5 ml HOCl in a total volume of 500 ml).” left out
# Pea seedlings = test: In planta metabolism of carbocyclic coformycin; type: in vivo; details: 10 μM [3H] compound via the transpiration stream; 4 hours incubation
# Experimental: Pea seedlings were grown as described in Test Example 2, harvested as described in Test Example 3 and then supplied with 10 μM (400 Ci mol^-1) [^3 H] carbocyclic coformycin via the transpiration stream. After incubation periods, pairs of seedlings were rapidly frozen in liquid nitrogen, ground to a fine powder and extracted in 2 ml ice cold 0.4M HClO4. The extracts were processed for HPLC analysis as described in Test Example 2 above except that the final sample was resuspended in 0.5 ml water instead of 10 mM HCl. [^3 H] carbocyclic coformycin and [^3 H] carbocyclic coformycin 5'-phosphate were separated using cation exchange chromatography with a Partisil (Registered Trade Mark) SCX column (8.0 cm×0.46 cm), 0.05M NH4 H2 PO4, pH 2.6; flow rate=2 ml/minute.
# [2] = test system: extractable ATP levels in pea seedlings; test: Measurement of extractable ATP levels; type: in vivo, Peas
# Experimental: Peas were grown as described in Test Example 1 and exposed to carbocyclic coformycin via the transpiration stream as outlined in Test Example 3. Individual seedlings were rapidly frozen in liquid nitrogen. The frozen tissue was ground to a fine powder using a pestle and mortar then 1 ml ice cold 0.4M HClO4 was added. The frozen acid was ground to a fine powder tissue, the mixture allowed to thaw and then incubated on ice for 15 minutes. The extract was centrifuged (4,000 rpm, 5 minutes).
# ATP measurements were made using the luciferase assay and a LUMAC Biocounter M2500 (6370 AC Landgraaf, The Netherlands). Samples were diluted 1:10,000 in water and 100 μl was assayed according to the manufacturer's instructions.
# [3] = target: T1, calf intestinal mucosa adenosine deaminase (Bos taurus, UniProt P56658); test: Mammalian adenosine deaminase inhibition assay; type: biochemical
# T1 construct: calf intestinal mucosa adenosine deaminase; purchased Sigma Chemical Company Limited; host or cells: calf intestinal mucosa
# Experimental: Mammalian Adenosine Deaminase Inhibition Assay
# A suitable source of enzyme is calf intestinal mucosa adenosine deaminase supplied by the Sigma Chemical Company Limited. The assay employed follows the protocol provided by the supplier and measures a decrease in absorption at 265 nm as the substrate adenosine is utilized. A 10 minute preincubation of enzyme and inhibitor prior to addition of the substrate was employed.
# T1 sequence (P56658 whole entry): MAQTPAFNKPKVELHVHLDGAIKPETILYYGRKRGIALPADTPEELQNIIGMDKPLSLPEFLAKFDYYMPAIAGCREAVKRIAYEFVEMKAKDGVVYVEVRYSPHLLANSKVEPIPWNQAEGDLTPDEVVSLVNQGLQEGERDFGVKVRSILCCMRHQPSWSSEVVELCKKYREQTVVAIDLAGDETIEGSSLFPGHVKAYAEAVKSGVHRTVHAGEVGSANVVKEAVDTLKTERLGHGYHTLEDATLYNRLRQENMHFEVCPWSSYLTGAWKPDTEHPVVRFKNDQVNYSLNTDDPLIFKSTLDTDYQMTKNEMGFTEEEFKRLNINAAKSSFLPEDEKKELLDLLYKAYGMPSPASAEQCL
smiles,measurement,setting,value
"Nc1ncnc2c1ncn2[C@@H]1O[C@H](CO)[C@@H](O)[C@H]1O [[^14 C adenosine, adenosine]",% of radiolabel as ADP,[1],0%
same,% of radiolabel as AMP,[1],0%
same,% of radiolabel as ATP,[1],0%
same,% of radiolabel as IMP,[1],0%
same,% of radiolabel as inosine,[1],0%
same,% of radiolabel as adenosine,[1]; 500 µM,100%
O=P(O)(O)OC[C@H]1C[C@@H](n2cnc3c2N=CNC[C@H]3O)[C@H](O)[C@@H]1O [carbocyclic coformycin 5'-phosphate],inhibition of plant AMP deaminase (in words),plant AMP deaminase,potent inhibitor
same,IC50,plant AMP deaminase,0.02 µM
OC[C@H]1C[C@@H](n2cnc3c2N=CNC[C@H]3O)[C@H](O)[C@@H]1O [carbocyclic coformycin],extractable levels of AMP deaminase (in words),AMP deaminase; applied to pea seedlings via the transpiration stream,rapid decrease
same,"extractable levels of AMP deaminase, % of the control levels","AMP deaminase; treatment for 1 hour via the transpiration stream, control 19 μmols ammonia release per gram fresh weight per minute",20-30%
same,inhibition of plant AMP deaminase (in words),plant AMP deaminase,relatively poor inhibitor
same,IC50,plant AMP deaminase,120 µM
same,major metabolite in planta,Pea seedlings,co-chromatographed with authentic carbocyclic coformycin 5'-phosphate
same,ATP levels relative to the control levels,"[2]; 100 μM via the transpiration stream, 4 hours treatment, control 333 nmols ATP per gram fresh weight",approximately twice
same,rise in extractable levels of ATP (in words),[2]; in vivo,remarkable rise
same,inhibition of mammalian adenosine deaminase (in words),[3],potent inhibitor
same,IC50,"[3]; 10 minute preincubation, substrate concentration 60 μM, read-out: 50% inhibition of adenosine deaminase",0.025 µM
